Assay results published in BindingDB's records for doi:10.1021/acs.jmedchem.8b01226 (Recordati, 2019).

Target: Metabotropic glutamate receptor 1 (Rattus norvegicus, UniProt P23385)
Experiment: Displacement of […] from rat mGlu1 receptor expressed in CHO-TREx cell membranes after 30 mins by liquid scintillation spectrometric analysis

Metabotropic glutamate receptor 1, sequence (P23385 whole entry): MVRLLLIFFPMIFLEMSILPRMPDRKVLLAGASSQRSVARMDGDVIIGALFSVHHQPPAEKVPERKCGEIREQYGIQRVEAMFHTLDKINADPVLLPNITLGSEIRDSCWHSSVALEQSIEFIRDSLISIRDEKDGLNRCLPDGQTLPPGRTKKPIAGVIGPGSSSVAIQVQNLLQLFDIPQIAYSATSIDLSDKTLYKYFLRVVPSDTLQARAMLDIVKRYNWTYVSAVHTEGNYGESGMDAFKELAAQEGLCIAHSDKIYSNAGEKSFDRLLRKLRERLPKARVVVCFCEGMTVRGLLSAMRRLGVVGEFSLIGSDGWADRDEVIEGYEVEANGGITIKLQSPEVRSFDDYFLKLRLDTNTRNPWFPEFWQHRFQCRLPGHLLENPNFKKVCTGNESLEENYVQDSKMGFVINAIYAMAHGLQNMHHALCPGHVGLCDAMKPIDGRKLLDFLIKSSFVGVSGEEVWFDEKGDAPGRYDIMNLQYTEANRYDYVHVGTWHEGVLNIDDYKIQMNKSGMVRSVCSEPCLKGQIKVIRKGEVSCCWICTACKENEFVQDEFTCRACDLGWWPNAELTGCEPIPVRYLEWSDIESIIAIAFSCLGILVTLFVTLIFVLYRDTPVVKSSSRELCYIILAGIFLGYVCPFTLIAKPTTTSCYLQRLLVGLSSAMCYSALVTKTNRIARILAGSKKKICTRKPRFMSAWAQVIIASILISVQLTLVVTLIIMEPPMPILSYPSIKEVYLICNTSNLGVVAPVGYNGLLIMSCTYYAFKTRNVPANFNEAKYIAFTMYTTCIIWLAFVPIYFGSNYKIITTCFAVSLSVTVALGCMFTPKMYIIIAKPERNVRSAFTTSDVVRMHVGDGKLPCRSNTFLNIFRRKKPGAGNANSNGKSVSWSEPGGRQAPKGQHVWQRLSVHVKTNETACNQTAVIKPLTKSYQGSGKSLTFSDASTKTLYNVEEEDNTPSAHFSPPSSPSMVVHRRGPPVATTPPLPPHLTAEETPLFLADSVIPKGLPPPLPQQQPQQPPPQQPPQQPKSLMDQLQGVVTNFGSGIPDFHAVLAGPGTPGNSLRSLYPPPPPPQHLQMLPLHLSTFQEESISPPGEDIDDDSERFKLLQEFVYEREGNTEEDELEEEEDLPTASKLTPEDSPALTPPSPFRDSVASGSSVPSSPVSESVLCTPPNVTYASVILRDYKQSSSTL

Cc1nc(C#Cc2cccnc2)cs1 [3-(2-(2-methylthiazol-4-yl)ethynyl)pyridine]
Ki: > 10 µM
